Here are results for 20 molecules from US9781930B2, “3′-substituted-abscisic acid derivatives” (Valent BioSciences Corporation, priority 2014, dated 2017).

Holding throughout (type): in vivo
Assay [1] concerns Arabidopsis thaliana seed. The assay can be described thus: Seed germination assay for testing Examples 29-46. As for the experimental part:
(§1) Seed Germination Assay for Testing Examples 29-46 To determine the germination inhibition potency of the (±)-ABA derivatives, germination assays were performed with the model plant Arabidopsis thaliana. Arabidopsis seed was sterilized by soaking in 70% ethanol solution for 5 minutes, followed by 5% sodium hypochlorite solution for 10 minutes. The seeds were then washed three times with sterile water. The test compounds were tested in germination assay at five concentrations (0.16, 0.64, 2.5, 10, and 40 μM) with (S)-ABA (0.16, 0.64 and 2.5 μM) as a control in 6-well plates. DMSO stock solutions of (S)-ABA and the derivatives at 1,000 fold of the test concentrations were prepared. The stock solutions (5 μL) of (S)-ABA and the derivatives were added to the wells in the assay plate with 0.8% agar solutions of ½ Murashige and Skoog media. Sixteen sterile seeds were placed on the solid agar medium at an appropriate spacing. The assay plates were sealed with surgical tape and wrapped in aluminum foil, and the seeds were vernalized at 4° C. for 2 days. The assay plates were incubated in a growth chamber at 22.5° C. under daily light cycles of 16 hours (30 μmol/m^2·sec) for 4 days after the vernalization. The germination inhibition potency of the derivatives was scored and compared with that of (S)-ABA. The results are summarized in Table 2 “Table 2: Arabidopsis seed germination inhibition activity of (±)-ABA derivatives.”

For assay [2], the system named is Arabidopsis thaliana seed. The assay can be described thus: Seed germination assay for testing Examples 29-46. More on the design: key: ++++: The 3′-substituted-derivatives were scored by potency relative to ABA.; (S)-ABA potency = +++.; ++: The 3′-substituted-derivatives were scored by potency relative to ABA.; +: The 3′-substituted-derivatives were scored by potency relative to ABA.; −− = no effect. The conditions noted are these: 0.16-40 μM in 6-well plates, 4 days after vernalization, compared with (S)-ABA. The procedure: as §1

Assay [3] concerns Arabidopsis thaliana seed. The assay is described as follows: Seed germination inhibition assay for testing Examples 1-28 and 47-50. More on the design: key to Arabidopsis seed germination inhibition potency: + + + +: The other derivatives were scored by potency relative to S-ABA.; (S)-ABA potency = + + +.; + +: The other derivatives were scored by potency relative to S-ABA.; ++: The other derivatives were scored by potency relative to S-ABA.; +: The other derivatives were scored by potency relative to S-ABA.; −− = no effect. To be noted: 0.01-10.0 ppm in 96-well plates, scored on day 7, relative to (S)-ABA. The procedure: Seed Germination Inhibition Assay for Testing Examples 1-28 and 47-50 To determine the germination inhibition potency of the (S)-ABA derivatives, germination assays were performed with the model plant Arabidopsis thaliana. Arabidopsis seed was sterilized by shaking for five minutes in 200-proof ethanol, and followed by shaking for five minutes in a 10% bleach solution. The seeds were then washed five times in sterile, distilled, de-ionized water and suspended in 0.1% phytoagar. The tubes containing the seeds were wrapped in aluminum foil and stratified at 4° C. for two days. All compounds were tested at eight concentrations of 0 (DMSO control), 0.01, 0.03, 0.1, 0.3, 1.0, 3.0, and 10.0 ppm in 96-well plates. Each plate contained eight replicates of each concentration of the test compound and eight replicates of (S)-ABA at 0.1 ppm as the positive control. As an additional set of controls, each run of the assay also contained one plate dosed with (S)-ABA covering a range of concentrations up to 10 ppm. For each compound, 10× stock solutions corresponding to each of the tested concentrations were prepared in distilled and de-ionized water containing 5% DMSO. The stock test solution (10 μL) was added to each well according to the scheme described above, and 90 μL of ½× Murashige and Skoog media containing 1.2% Bactoagar was then added to each well (final DMSO concentration was 0.5%). When the media solidified, ten to fifteen sterile stratified Arabidopsis seeds were distributed into each well using a repeat pipettor. The plates were sealed with surgical tape and placed in a growth chamber running diurnal cycles of 12 hours of light at 24° C. and 12 hours of darkness at 19° C. The plates were scanned on days 3 through 7, and scored on day 7. The 3′-substituted-(S)-ABA derivatives were scored on ability to inhibit germination relative to the potency of (S)-ABA. The results are summarized below in “Table 1: Arabidopsis seed germination inhibition activity of (S)-ABA derivatives.”

For `CC1=C(C2CC2F)C(=O)CC(C)(C)C1(O)/C=C/C(C)=C\C(=O)O` (racemic) [Example 43, (2Z,4E)-5-(3-(2-fluorocyclopropyl)-1-hydroxy-2,6,6-trimethyl-4-oxocyclohex-2-en-1-yl)-3-methylpenta-2,4-dienoic acid], the “germination inhibition activity compared to (S)-ABA (in words)” value in assay [1] is recorded as “the same level of potency as (S)-ABA”. Besides, the “Arabidopsis seed germination inhibition potency” value in assay [2] is “+++”.
Take `CC1=C(CC(F)(F)F)C(=O)CC(C)(C)C1(O)/C=C/C(C)=C\C(=O)O` (racemic) [Example 44, (2Z,4E)-5-(1-hydroxy-2,6,6-trimethyl-4-oxo-3-(2,2,2-trifluoroethyl)cyclohex-2-en-1-yl)-3-methylpenta-2,4-dienoic acid]: the “Arabidopsis seed germination inhibition potency” value in assay [2] was “++”.
With `CC1=C(C2CC2)C(=O)CC(C)(C)C1(O)/C=C/C(C)=C\C(=O)O` (racemic) [Example 29, (2Z,4E)-5-(3-cyclopropyl-1-hydroxy-2,6,6-trimethyl-4-oxocyclohex-2-en-1-yl)-3-methylpenta-2,4-dienoic acid], the “germination inhibition activity compared to (S)-ABA (in words)” value in assay [1] was “the same level of potency as (S)-ABA”. Also, the “Arabidopsis seed germination inhibition potency” value in assay [2] is listed as “+++”.
Consider `CCCCC1=C(C)C(O)(/C=C/C(C)=C\C(=O)O)C(C)(C)CC1=O` (racemic) [Example 33, (2Z,4E)-5-(3-butyl-1-hydroxy-2,6,6-trimethyl-4-oxocyclohex-2-en-1-yl)-3-methylpenta-2,4-dienoic acid], for which the “Arabidopsis seed germination inhibition potency” value in assay [2] is “+”.
Take `CC1=C(C2CCC2)C(=O)CC(C)(C)C1(O)/C=C/C(C)=C\C(=O)O` (racemic) [Example 41, (2Z,4E)-5-(3-cyclobutyl-1-hydroxy-2,6,6-trimethyl-4-oxocyclohex-2-en-1-yl)-3-methylpenta-2,4-dienoic acid]: in assay [2], the “Arabidopsis seed germination inhibition potency” value was “++”.
Turning to `CC1=C(C(F)F)C(=O)CC(C)(C)C1(O)/C=C/C(C)=C\C(=O)O` (racemic) [Example 38, (2Z,4E)-5-(3-(difluoromethyl)-1-hydroxy-2,6,6-trimethyl-4-oxocyclohex-2-en-1-yl)-3-methylpenta-2,4-dienoic acid], the “germination inhibition activity compared to (S)-ABA (in words)” value in assay [1] is listed as “the same level of potency as (S)-ABA”. The “Arabidopsis seed germination inhibition potency” value in assay [2] is “+++”.
With `CCC1=C(C)C(O)(/C=C/C(C)=C\C(=O)O)C(C)(C)CC1=O` (racemic) [Example 32, (2Z,4E)-5-(3-ethyl-1-hydroxy-2,6,6-trimethyl-4-oxocyclohex-2-en-1-yl)-3-methylpenta-2,4-dienoic acid], the “germination inhibition activity compared to (S)-ABA (in words)” value in assay [1] is recorded as “the same level of potency as (S)-ABA”. Also, the “Arabidopsis seed germination inhibition potency” value in assay [2] is listed as “+++”.
For the molecule `CC1=CC(=O)CC(C)(C)[C@@]1(O)/C=C/C(C)=C/C(=O)O` [(S)-ABA, (S)-abscisic acid, reference compound], the “Arabidopsis seed germination inhibition potency” value is on record as “+ + +” in assay [3] and “+++” in assay [2].
For `CCCC1=C(C)C(O)(/C=C/C(C)=C\C(=O)O)C(C)(C)CC1=O` (racemic) [Example 30, (2Z,4E)-5-(1-hydroxy-2,6,6-trimethyl-4-oxo-3-propylcyclohex-2-en-1-yl)-3-methylpenta-2,4-dienoic acid], the “germination inhibition activity compared to (S)-ABA (in words)” value in assay [1] is given as “the same level of potency as (S)-ABA”. Moreover, the “Arabidopsis seed germination inhibition potency” value in assay [2] is reported as “+++”.
Taken in the same sequence, the figures for `CC1=C(C(C)(F)F)C(=O)CC(C)(C)C1(O)/C=C/C(C)=C\C(=O)O` (racemic) [Example 39, (2Z,4E)-5-(3-(1,1-difluoroethyl)-1-hydroxy-2,6,6-trimethyl-4-oxocyclohex-2-en-1-yl)-3-methylpenta-2,4-dienoic acid] were “more active than (S)-ABA” and “++++”.
Taken in the same sequence, the figures for `CC1=C(C(C)F)C(=O)CC(C)(C)C1(O)/C=C/C(C)=C\C(=O)O` (racemic) [Example 40, (2Z,4E)-5-(3-(1-fluoroethyl)-1-hydroxy-2,6,6-trimethyl-4-oxocyclohex-2-en-1-yl)-3-methylpenta-2,4-dienoic acid] were “more active than (S)-ABA” and “++++”.
Regarding `CC1=C(CC#N)C(=O)CC(C)(C)[C@@]1(O)/C=C/C(C)=C\C(=O)O` [Example 11, (2Z,4E)-5-((S)-3-(cyanomethyl)-1-hydroxy-2,6,6-trimethyl-4-oxocyclohex-2-en-1-yl)-3-methylpenta-2,4-dienoic acid], the “Arabidopsis seed germination inhibition potency” value in assay [3] is on record as “++”.
On the same count and under the same terms, the result for `CC1=C(CC(=O)N(C)C)C(=O)CC(C)(C)[C@@]1(O)/C=C/C(C)=C\C(=O)O` [Example 12, (2Z,4E)-5-((S)-3-(2-(dimethylamino)-2-oxoethyl)-1-hydroxy-2,6,6-trimethyl-4-oxocyclohex-2-en-1-yl)-3-methylpenta-2,4-dienoic acid] reads “−−”.
On the same count and under the same terms, next, `CC#CCC1=C(C)[C@](O)(/C=C/C(C)=C\C(=O)O)C(C)(C)CC1=O` [Example 47, (2Z,4E)-5-((S)-3-(but-2-yn-1-yl)-1-hydroxy-2,6,6-trimethyl-4-oxocyclohex-2-en-1-yl)-3-methylpenta-2,4-dienoic acid]: “++”; `CC1=C(Cc2cccc(C)c2)C(=O)CC(C)(C)[C@@]1(O)/C=C/C(C)=C\C(=O)O` [Example 17, (2Z,4E)-5-((S)-1-hydroxy-2,6,6-trimethyl-3-(3-methylbenzyl)-4-oxocyclohex-2-en-1-yl)-3-methylpenta-2,4-dienoic acid]: “−−”.
As for `CCCC1=C(C)[C@](O)(/C=C/C(C)=C\C(=O)O)C(C)(C)CC1=O` [Example 3, (2Z,4E)-5-((S)-1-hydroxy-2,6,6-trimethyl-4-oxo-3-propylcyclohex-2-en-1-yl)-3-methylpenta-2,4-dienoic acid], in assay [3], the “Arabidopsis seed germination inhibition potency” value is listed as “+ +”.
Take `CC1=C(C(C)C)C(=O)CC(C)(C)C1(O)/C=C/C(C)=C\C(=O)O` (racemic) [Example 31, (2Z,4E)-5-(1-hydroxy-3-isopropyl-2,6,6-trimethyl-4-oxocyclohex-2-en-1-yl)-3-methylpenta-2,4-dienoic acid]: the “Arabidopsis seed germination inhibition potency” value in assay [2] was “+”.
For `CC1=C(Cc2ccccc2F)C(=O)CC(C)(C)[C@@]1(O)/C=C/C(C)=C\C(=O)O` [Example 19, (2Z,4E)-5-((S)-3-(2-fluorobenzyl)-1-hydroxy-2,6,6-trimethyl-4-oxocyclohex-2-en-1-yl)-3-methylpenta-2,4-dienoic acid], in assay [3], the “Arabidopsis seed germination inhibition potency” value is “−−”.
Still for that read-out and setting: next, `CC1=C(Cc2ccccc2C)C(=O)CC(C)(C)[C@@]1(O)/C=C/C(C)=C\C(=O)O` [Example 16, (2Z,4E)-5-((S)-1-hydroxy-2,6,6-trimethyl-3-(2-methylbenzyl)-4-oxocyclohex-2-en-1-yl)-3-methylpenta-2,4-dienoic acid]: “−−”; `CC1=C(Cc2ccc(Cl)cc2)C(=O)CC(C)(C)[C@@]1(O)/C=C/C(C)=C\C(=O)O` [Example 25, (2Z,4E)-5-((S)-3-(4-chlorobenzyl)-1-hydroxy-2,6,6-trimethyl-4-oxocyclohex-2-en-1-yl)-3-methylpenta-2,4-dienoic acid]: “−−”.
